ChEMBL document CHEMBL1221226 (Nat Chem Biol, 2009)
Each block holds one molecule with its values, some of them ahead of it. Positions of bridges follow the written chain, without caps; N, C: chain ends. Residues, ends and D or L forms follow the SMILES beside them. *: point of attachment. X1 = CC(CN[C@@H](Cc1cnc[nH]1)C(=O)O)C(=O)*

How the values were obtained:
Glucagon receptor = Glucagon receptor (Homo sapiens, UniProt P47871); test: Agonist activity at GCGR expressed in HEK293 cells assessed as stimulation of cAMP production by luciferase reporter gene assay; format: functional, cell-based
Chain of Glucagon receptor (P47871 whole entry): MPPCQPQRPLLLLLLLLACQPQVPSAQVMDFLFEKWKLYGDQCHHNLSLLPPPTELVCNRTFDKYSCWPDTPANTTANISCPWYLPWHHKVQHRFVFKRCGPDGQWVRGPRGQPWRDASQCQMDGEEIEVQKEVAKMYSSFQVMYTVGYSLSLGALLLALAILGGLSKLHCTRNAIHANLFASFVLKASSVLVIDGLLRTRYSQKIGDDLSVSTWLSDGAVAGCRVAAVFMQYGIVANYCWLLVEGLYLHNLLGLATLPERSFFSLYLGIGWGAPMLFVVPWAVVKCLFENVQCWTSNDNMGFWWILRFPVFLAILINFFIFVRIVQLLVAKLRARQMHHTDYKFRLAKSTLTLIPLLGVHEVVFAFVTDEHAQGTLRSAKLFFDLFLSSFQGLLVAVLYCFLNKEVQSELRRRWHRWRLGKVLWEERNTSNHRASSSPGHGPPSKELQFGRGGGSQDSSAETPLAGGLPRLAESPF

[1] = biological target: Glucagon-like peptide 1 receptor (Homo sapiens, UniProt P43220); test: Agonist activity at GLP1R expressed in HEK293 cells assessed as stimulation of cAMP production by luciferase reporter gene assay; format: functional, cell-based
Chain of Glucagon-like peptide 1 receptor (P43220 whole entry): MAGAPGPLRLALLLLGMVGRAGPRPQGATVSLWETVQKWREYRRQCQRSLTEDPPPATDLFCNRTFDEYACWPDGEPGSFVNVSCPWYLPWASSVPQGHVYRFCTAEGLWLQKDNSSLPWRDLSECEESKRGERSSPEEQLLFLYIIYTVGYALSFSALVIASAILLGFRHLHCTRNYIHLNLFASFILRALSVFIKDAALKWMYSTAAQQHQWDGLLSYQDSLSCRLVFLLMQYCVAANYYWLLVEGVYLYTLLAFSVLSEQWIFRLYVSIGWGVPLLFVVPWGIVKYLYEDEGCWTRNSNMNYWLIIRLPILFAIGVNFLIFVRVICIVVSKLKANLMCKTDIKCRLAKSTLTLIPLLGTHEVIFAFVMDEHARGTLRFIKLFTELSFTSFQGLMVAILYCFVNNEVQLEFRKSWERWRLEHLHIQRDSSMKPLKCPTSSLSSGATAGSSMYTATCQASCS

- EC50 (Glucagon receptor): 0.046 nM
- EC50 [1]: 0.051 nM
Structure (SMILES): CSCC[C@H](NC(=O)[C@H](CC(C)C)NC(=O)[C@H](Cc1c[nH]c2ccccc12)NC(=O)[C@H](CCC(N)=O)NC(=O)[C@@H](NC(=O)[C@H](Cc1ccccc1)NC(=O)[C@H](CC(=O)O)NC(=O)[C@H](CCC(N)=O)NC(=O)[C@H](C)NC(=O)[C@H](CCCN=C(N)N)NC(=O)[C@H](CCCN=C(N)N)NC(=O)[C@@H]1CCC(=O)NCCCC[C@H](NC(=O)[C@H](CO)NC(=O)[C@H](Cc2ccc(O)cc2)NC(=O)[C@H](CC(=O)O)NC(=O)[C@H](CO)NC(=O)[C@@H](NC(=O)[C@H](Cc2ccccc2)NC(=O)[C@@H](NC(=O)CNC(=O)[C@H](CCC(N)=O)NC(=O)[C@H](CO)N[C@@H](Cc2cnc[nH]2)C(=O)O)[C@@H](C)O)[C@@H](C)O)C(=O)N[C@@H](Cc2ccc(O)cc2)C(=O)N[C@@H](CC(C)C)C(=O)N[C@@H](CC(=O)O)C(=O)N1)C(C)C)C(=O)N[C@@H](CC(N)=O)C(=O)N[C@H](C(=O)O)[C@@H](C)O

- EC50 (Glucagon receptor): 0.078 nM
- EC50 [1]: 0.24 nM
Structure (SMILES): CSCC[C@H](NC(=O)[C@H](CC(C)C)NC(=O)[C@H](Cc1c[nH]c2ccccc12)NC(=O)[C@@H]1CCC(=O)NCCCC[C@H](NC(=O)[C@H](C)NC(=O)[C@H](CCCN=C(N)N)NC(=O)[C@H](CCCN=C(N)N)NC(=O)[C@H](CO)NC(=O)[C@H](CC(=O)O)NC(=O)[C@H](CC(C)C)NC(=O)[C@H](Cc2ccc(O)cc2)NC(=O)[C@H](CCCCN)NC(=O)[C@H](CO)NC(=O)[C@H](Cc2ccc(O)cc2)NC(=O)[C@H](CC(=O)O)NC(=O)[C@H](CO)NC(=O)[C@@H](NC(=O)[C@H](Cc2ccccc2)NC(=O)[C@@H](NC(=O)CNC(=O)[C@H](CCC(N)=O)NC(=O)[C@H](CO)N[C@@H](Cc2cnc[nH]2)C(=O)O)[C@@H](C)O)[C@@H](C)O)C(=O)N[C@@H](CC(=O)O)C(=O)N[C@@H](Cc2ccccc2)C(=O)N[C@@H](C(C)C)C(=O)N1)C(=O)N[C@@H](CC(N)=O)C(=O)N[C@H](C(=O)O)[C@@H](C)O

- EC50 (Glucagon receptor): 0.076 nM
- EC50 [1]: 0.18 nM
Structure (SMILES): CSCC[C@@H]1NC(=O)[C@H](CC(C)C)NC(=O)[C@H](Cc2c[nH]c3ccccc23)NC(=O)[C@@H](NC(=O)[C@@H](NC(=O)[C@H](Cc2ccccc2)NC(=O)[C@H](CC(=O)O)NC(=O)[C@H](CCC(N)=O)NC(=O)[C@H](C)NC(=O)[C@H](CCCN=C(N)N)NC(=O)[C@H](CCCN=C(N)N)NC(=O)[C@H](CO)NC(=O)[C@H](CC(=O)O)NC(=O)[C@H](CC(C)C)NC(=O)[C@H](Cc2ccc(O)cc2)NC(=O)[C@H](CCCCN)NC(=O)[C@H](CO)NC(=O)[C@H](Cc2ccc(O)cc2)NC(=O)[C@H](CC(=O)O)NC(=O)[C@H](CO)NC(=O)[C@@H](NC(=O)[C@H](Cc2ccccc2)NC(=O)[C@@H](NC(=O)CNC(=O)[C@H](CCC(N)=O)NC(=O)[C@H](CO)N[C@@H](Cc2cnc[nH]2)C(=O)O)[C@@H](C)O)[C@@H](C)O)C(C)C)CCC(=O)NCCCC[C@@H](C(=O)N[C@H](C(=O)O)[C@@H](C)O)NC1=O

Further lines, the molecule ahead of its results:

Structure (SMILES): CSCC[C@H](NC(=O)[C@H](CC(C)C)NC(=O)[C@H](Cc1c[nH]c2ccccc12)NC(=O)[C@H](CCC(N)=O)NC(=O)[C@@H](NC(=O)[C@H](Cc1ccccc1)NC(=O)[C@H](CC(=O)O)NC(=O)[C@@H]1CCCCNC(=O)CC[C@H](NC(=O)[C@H](CC(=O)O)NC(=O)[C@H](CC(C)C)NC(=O)[C@H](Cc2ccc(O)cc2)NC(=O)[C@H](CCCCN)NC(=O)[C@H](CO)NC(=O)[C@H](Cc2ccc(O)cc2)NC(=O)[C@H](CC(=O)O)NC(=O)[C@H](CO)NC(=O)[C@@H](NC(=O)[C@H](Cc2ccccc2)NC(=O)[C@@H](NC(=O)CNC(=O)[C@H](CCC(N)=O)NC(=O)[C@H](CO)N[C@@H](Cc2cnc[nH]2)C(=O)O)[C@@H](C)O)[C@@H](C)O)C(=O)N[C@@H](CCCNC(=N)N)C(=O)N[C@@H](CCCNC(=N)N)C(=O)N[C@@H](C)C(=O)N1)C(C)C)C(=O)N[C@@H](CC(N)=O)C(=O)N[C@H](C(=O)O)[C@@H](C)O
- EC50 (Glucagon receptor): 0.058 nM
- EC50 [1]: 0.049 nM

Structure (SMILES): CSCC[C@H](NC(=O)[C@H](CC(C)C)NC(=O)[C@H](Cc1c[nH]c2ccccc12)NC(=O)[C@H](CCC(N)=O)NC(=O)[C@@H](NC(=O)[C@H](Cc1ccccc1)NC(=O)[C@H](CC(=O)O)NC(=O)[C@H](CCC(N)=O)NC(=O)[C@H](C)NC(=O)[C@H](CCCNC(=N)N)NC(=O)[C@H](CCCNC(=N)N)NC(=O)[C@H](CCC(=O)O)NC(=O)[C@H](CCC(=O)O)NC(=O)[C@H](CC(C)C)NC(=O)[C@H](Cc1ccc(O)cc1)NC(=O)[C@H](CO)NC(=O)[C@H](CO)NC(=O)[C@@H](NC(=O)[C@H](CC(=O)O)NC(=O)[C@H](CO)NC(=O)[C@@H](NC(=O)[C@H](Cc1ccccc1)NC(=O)[C@@H](NC(=O)CNC(=O)[C@H](CCC(=O)O)NC(=O)[C@H](C)NC(=O)[C@@H](N)Cc1cnc[nH]1)[C@@H](C)O)[C@@H](C)O)C(C)C)C(C)C)C(=O)N[C@@H](CC(N)=O)C(=O)N[C@H](C(=O)O)[C@@H](C)O (H-HAEGTFTSDVSSYLEERRAQDFVQWLMNT-OH)
- EC50 (Glucagon receptor; hek293): 50 nM
- EC50 ([1]; hek293): 0.18 nM

Structure (SMILES): CC[C@H](C)[C@H](NC(=O)[C@H](Cc1ccccc1)NC(=O)[C@H](CCC(=O)O)NC(=O)[C@H](CCCCN)NC(=O)[C@H](C)NC(=O)[C@H](C)NC(=O)[C@H](CCC(N)=O)NC(=O)[C@H](CCC(=O)O)NC(=O)[C@H](CC(=O)O)NC(=O)[C@H](CC(C)C)NC(=O)[C@H](Cc1ccc(O)cc1)NC(=O)[C@H](CCCCN)NC(=O)[C@H](CO)NC(=O)[C@H](Cc1ccc(O)cc1)NC(=O)[C@H](CC(=O)O)NC(=O)[C@H](CO)NC(=O)[C@@H](NC(=O)[C@H](Cc1ccccc1)NC(=O)[C@@H](NC(=O)CNC(=O)[C@H](CCC(N)=O)NC(=O)[C@H](CO)NC(=O)[C@@H](N)Cc1cnc[nH]1)[C@@H](C)O)[C@@H](C)O)C(=O)N[C@@H](C)C(=O)N[C@@H](Cc1c[nH]c2ccccc12)C(=O)N[C@@H](CC(C)C)C(=O)N[C@@H](CCSC)C(=O)N[C@@H](CC(N)=O)C(=O)N[C@H](C(=O)O)[C@@H](C)O (H-HSQGTFTSDYSKYLDEQAAKEFIAWLMNT-OH)
- EC50 (Glucagon receptor; hek293): 0.068 nM
- EC50 ([1]; hek293): 0.026 nM

Structure (SMILES): CC[C@H](C)[C@H](NC(=O)[C@H](Cc1ccccc1)NC(=O)[C@H](CCC(=O)O)NC(=O)[C@H](CCCCN)NC(=O)[C@H](C)NC(=O)[C@H](C)NC(=O)[C@H](CCC(N)=O)NC(=O)[C@H](CCC(=O)O)NC(=O)[C@H](CC(=O)O)NC(=O)[C@H](CC(C)C)NC(=O)[C@H](Cc1ccc(O)cc1)NC(=O)[C@H](CCCCN)NC(=O)[C@H](CO)NC(=O)[C@H](Cc1ccc(O)cc1)NC(=O)[C@H](CC(=O)O)NC(=O)[C@H](CO)NC(=O)[C@@H](NC(=O)[C@H](Cc1ccccc1)NC(=O)[C@@H](NC(=O)CNC(=O)[C@H](CCC(N)=O)NC(=O)[C@H](CO)NC(=O)[C@@H](N)Cc1cnc[nH]1)[C@@H](C)O)[C@@H](C)O)C(=O)N[C@@H](C)C(=O)N[C@@H](Cc1c[nH]c2ccccc12)C(=O)N[C@@H](CC(C)C)C(=O)N[C@H](C(=O)N[C@@H](CCCCN)C(=O)NCC(=O)O)C(C)C (H-HSQGTFTSDYSKYLDEQAAKEFIAWLVKG-OH)
- EC50 (Glucagon receptor; hek293): 0.47 nM
- EC50 ([1]; hek293): 0.015 nM

Structure (SMILES): CC[C@H](C)[C@H](NC(=O)[C@H](Cc1ccccc1)NC(=O)[C@H](CCC(=O)O)NC(=O)[C@H](CCCCN)NC(=O)[C@H](C)NC(=O)[C@H](C)NC(=O)[C@H](CCC(N)=O)NC(=O)[C@H](CCC(=O)O)NC(=O)[C@H](CC(=O)O)NC(=O)[C@H](CC(C)C)NC(=O)[C@H](Cc1ccc(O)cc1)NC(=O)[C@H](CCCCN)NC(=O)[C@H](CO)NC(=O)[C@H](Cc1ccc(O)cc1)NC(=O)[C@H](CC(=O)O)NC(=O)[C@H](CO)NC(=O)[C@@H](NC(=O)[C@H](Cc1ccccc1)NC(=O)[C@@H](NC(=O)CNC(=O)[C@H](CCC(N)=O)NC(=O)C(C)CN[C@@H](Cc1cnc[nH]1)C(=O)O)[C@@H](C)O)[C@@H](C)O)C(=O)N[C@@H](C)C(=O)N[C@@H](Cc1c[nH]c2ccccc12)C(=O)N[C@@H](CC(C)C)C(=O)N[C@@H](CCSC)C(=O)N[C@@H](CC(N)=O)C(=O)N[C@H](C(=O)O)[C@@H](C)O (stereo partly drawn) (X1-QGTFTSDYSKYLDEQAAKEFIAWLMNT-OH)
- EC50 (Glucagon receptor): 0.59 nM
- EC50 [1]: 0.014 nM

Structure (SMILES): CC[C@H](C)[C@H](NC(=O)[C@H](Cc1ccccc1)NC(=O)[C@H](CCC(=O)O)NC(=O)[C@@H]1CCCCNC(=O)CC[C@H](NC(=O)[C@H](CC(=O)O)NC(=O)[C@H](CC(C)C)NC(=O)[C@H](Cc2ccc(O)cc2)NC(=O)[C@H](CCCCN)NC(=O)[C@H](CO)NC(=O)[C@H](Cc2ccc(O)cc2)NC(=O)[C@H](CC(=O)O)NC(=O)[C@H](CO)NC(=O)[C@@H](NC(=O)[C@H](Cc2ccccc2)NC(=O)[C@@H](NC(=O)CNC(=O)[C@H](CCC(N)=O)NC(=O)C(C)CN[C@@H](Cc2cnc[nH]2)C(=O)O)[C@@H](C)O)[C@@H](C)O)C(=O)N[C@@H](CCC(N)=O)C(=O)N[C@@H](C)C(=O)N[C@@H](C)C(=O)N1)C(=O)N[C@@H](C)C(=O)N[C@@H](Cc1c[nH]c2ccccc12)C(=O)N[C@@H](CC(C)C)C(=O)N[C@@H](CCSC)C(=O)N[C@@H](CC(N)=O)C(=O)N[C@H](C(=O)O)[C@@H](C)O (stereo partly drawn) (X1-QGTFTSDYSKYLDEQAAKEFIAWLMNT-OH; lactam 14-18)
- EC50 (Glucagon receptor): 0.055 nM
- EC50 [1]: 0.013 nM
